From ChEMBL document CHEMBL5550186, “Exploring the Potential of Cyclic Peptidyl Antitumor Agents Derived from Natural Macrocyclic Peptide Phakellistatin 13” (J Med Chem, 2024) come the findings set out here.

Starred links: 1 amine or outer side, 2 acyl side, 3 side chain; linkers in the order of their positions; H or OH if unused. Non-standard residues stand in square brackets, D forms with d. Residues, ends and D or L forms follow the SMILES beside them. *: point of attachment. X1 = O=C1c2ccccc2[C@@](O)(CN(Cc2ccccc2)[*:1])N1CC(=O)[*:2]; X2 = O=C1c2ccccc2[C@](O)(CN(Cc2ccccc2)[*:1])N1CC(=O)[*:2]; Bn = c1ccc(C*)cc1 A value given as a limit tells only on which side of the number the result lay.

In one data set the test system is HepG2. The data set is described as follows: Antiproliferative activity against human HepG2 cells incubated for 48 hrs by MTT assay. Format: functional, cell-based. As to conditions: HepG2, 48 h. A general note: Tetrazolium assays rely on reduction of a dye to a coloured formazan, in cell work by metabolically active cells.
The subject of the next data set is HeLa. Kind of data set: Antiproliferative activity against human HeLa cells incubated for 48 hrs by MTT assay. Type of data set: functional, cell-based.
For a further data set, the system named is MDA-MB-231. The data set is described as follows: Antiproliferative activity against human MDA-MB-231 cells incubated for 48 hrs by MTT assay. Format: functional, cell-based. The note with it: MDA-MB-231, 48 h.
For the next data set, the system named is BEL-7404 tumor cell line. The data set is described as follows: Antiproliferative activity against human BEL-7404 tumor cell line incubated for 48 hrs by MTT assay. Type of data set: functional, cell-based. As to conditions: BEL-7404, 48 h.
Another data set has as its system 4T1. Kind of data set: Antiproliferative activity against mouse 4T1 cells incubated for 48 hrs by MTT assay. As to conditions: 4T1, 48 h. Type of data set: functional, cell-based.
A short description of data set [1]: Antiproliferative activity against mouse L929 cells incubated for 48 hrs by MTT assay. Type of data set: toxicity, cell-based.

As to `CC(C)C[C@@H]1NC(=O)[C@H]([C@@H](C)OCc2ccccc2)NC(=O)CN2C(=O)c3ccccc3[C@]2(O)CN(Cc2ccccc2)C(=O)[C@@H]2CCCN2C(=O)[C@H](Cc2ccccc2)NC(=O)[C@@H]2CCCN2C(=O)[C@H](Cc2c[nH]c3ccccc23)NC1=O` (cyclo(FP[X2]T(Bn)LWP)), the IC50 in the data set on HepG2 came out at 32.6 µM; with HeLa, 50.8 µM; in the data set with MDA-MB-231, 26.1 µM; in the data set with BEL-7404 tumor cell line, 38.9 µM; with 4T1, 65.9 µM. The molecule also returned an IC50 at 48 h in data set [1] greater than 100 µM.
For the molecule `CC(C)C[C@@H]1NC(=O)[C@H]([C@@H](C)OCc2ccccc2)NC(=O)[C@@H]2CCCN2C(=O)[C@H](Cc2ccccc2)NC(=O)CN2C(=O)c3ccccc3[C@@]2(O)CN(Cc2ccccc2)C(=O)[C@@H]2CCCN2C(=O)[C@H](Cc2c[nH]c3ccccc23)NC1=O` (cyclo(FPT(Bn)LWP[X1])), the IC50 in the data set on HepG2 came out at 28.9 µM; with HeLa, 33.9 µM; in the data set on MDA-MB-231, 29.3 µM; in the data set with BEL-7404 tumor cell line, 30.2 µM; in the data set on 4T1, 42.6 µM. The IC50 at 48 h in data set [1] is greater than 100 µM.
For `CC(C)C[C@@H]1NC(=O)[C@H]([C@@H](C)OCc2ccccc2)NC(=O)[C@@H]2CCCN2C(=O)[C@H](Cc2ccccc2)NC(=O)[C@@H]2CCCN2C(=O)CN2C(=O)c3ccccc3[C@]2(O)CN(Cc2ccccc2)C(=O)[C@H](Cc2c[nH]c3ccccc23)NC1=O` (cyclo(FPT(Bn)LW[X2]P)), the IC50 in the data set on HepG2 came out at 44.3 µM; in the data set on HeLa it was 52.8 µM; in the data set on MDA-MB-231 it was 14 µM; with BEL-7404 tumor cell line, 36.1 µM; with 4T1, 65.2 µM. For the same molecule, the IC50 at 48 h in data set [1] is greater than 100 µM.
As to `CC(C)C[C@@H]1NC(=O)[C@H]([C@@H](C)OCc2ccccc2)NC(=O)[C@@H]2CCCN2C(=O)CN2C(=O)c3ccccc3[C@@]2(O)CN(Cc2ccccc2)C(=O)[C@H](Cc2ccccc2)NC(=O)[C@@H]2CCCN2C(=O)[C@H](Cc2c[nH]c3ccccc23)NC1=O`, the half-maximal inhibitory concentration (IC50) in the data set with HepG2 is 24.1 µM; in the data set with HeLa it was 28.6 µM; in the data set on MDA-MB-231, 15.4 µM; in the data set on BEL-7404 tumor cell line, 30 µM; in the data set on 4T1, 54.7 µM. Besides, in data set [1], the IC50 at 48 h is greater than 100 µM.
On to `CC(C)C[C@@H]1NC(=O)CN2C(=O)c3ccccc3[C@]2(O)CN(Cc2ccccc2)C(=O)[C@H]([C@@H](C)OCc2ccccc2)NC(=O)[C@@H]2CCCN2C(=O)[C@H](Cc2ccccc2)NC(=O)[C@@H]2CCCN2C(=O)[C@H](Cc2c[nH]c3ccccc23)NC1=O` (cyclo(FPT(Bn)[X2]LWP)), for which the concentration for half-maximal inhibition (IC50) was 35.5 µM in the data set with HepG2; 55.6 µM in the data set with HeLa; 32.6 µM in the data set with MDA-MB-231; 41.7 µM in the data set on BEL-7404 tumor cell line; 58.9 µM with 4T1. In data set [1], the IC50 at 48 h was greater than 100 µM.
As for `CC(C)C[C@@H]1NC(=O)[C@H]([C@@H](C)OCc2ccccc2)NC(=O)[C@@H]2CCCN2C(=O)[C@H](Cc2ccccc2)NC(=O)[C@@H]2CCCN2C(=O)[C@H](Cc2c[nH]c3ccccc23)NC(=O)CN2C(=O)c3ccccc3[C@@]2(O)CN(Cc2ccccc2)C1=O` (cyclo(FPT(Bn)L[X1]WP)), the IC50 was determined as 31.1 µM with HepG2; 35.9 µM in the data set with HeLa; 14.4 µM in the data set on MDA-MB-231; 28.7 µM in the data set on BEL-7404 tumor cell line; 67.5 µM in the data set on 4T1. In data set [1], this molecule had an IC50 at 48 h greater than 100 µM.
As for `CC(C)C[C@@H]1NC(=O)[C@H]([C@@H](C)O)NC(=O)[C@@H]2CCCN2C(=O)CNC(=O)[C@H](Cc2ccccc2)NC(=O)[C@@H]2CCCN2C(=O)[C@H](Cc2c[nH]c3ccccc23)NC1=O` [PHAKELLISTATIN 13] (cyclo(FGPTLWP)), the IC50 with HepG2 is 13.1 µM; in the data set on HeLa it was 28.1 µM; in the data set with MDA-MB-231 it was 20.5 µM; in the data set with BEL-7404 tumor cell line, 49.9 µM; in the data set on 4T1, 26.8 µM. In data set [1], the IC50 at 48 h was greater than 100 µM.
With `CC(C)C[C@H]1NC(=O)[C@@H]([C@H](C)OCc2ccccc2)NC(=O)[C@H]2CCCN2C(=O)CN2C(=O)c3ccccc3[C@@]2(O)CN(Cc2ccccc2)C(=O)[C@@H](Cc2ccccc2)NC(=O)[C@H]2CCCN2C(=O)[C@@H](Cc2c[nH]c3ccccc23)NC1=O`, the IC50 with HepG2 was determined as 29 µM; in the data set with HeLa, 31 µM; with MDA-MB-231 it was 17.8 µM; in the data set with BEL-7404 tumor cell line, 25.7 µM; in the data set with 4T1 it was 42.4 µM. In data set [1], this molecule returned an IC50 at 48 h greater than 100 µM.
Turning to `COc1cccc2c1C(=O)c1c(O)c3c(c(O)c1C2=O)C[C@@](O)(C(=O)CO)C[C@@H]3O[C@H]1C[C@H](N)[C@H](O)[C@H](C)O1` [DOXORUBICIN], the IC50 was found to be 26.6 µM in the data set on HepG2 and 20.9 µM in the data set with HeLa. Besides, the IC50 at 48 h in data set [1] is greater than 100 µM.

The term IC50 denotes the point on the concentration scale where inhibition reaches its midpoint.
